Biological target: T1, IDE (Homo sapiens, UniProt P14735)
T1 construct: made in house; host or cells: E. coli BL21
T1 sequence (P14735 1-1019): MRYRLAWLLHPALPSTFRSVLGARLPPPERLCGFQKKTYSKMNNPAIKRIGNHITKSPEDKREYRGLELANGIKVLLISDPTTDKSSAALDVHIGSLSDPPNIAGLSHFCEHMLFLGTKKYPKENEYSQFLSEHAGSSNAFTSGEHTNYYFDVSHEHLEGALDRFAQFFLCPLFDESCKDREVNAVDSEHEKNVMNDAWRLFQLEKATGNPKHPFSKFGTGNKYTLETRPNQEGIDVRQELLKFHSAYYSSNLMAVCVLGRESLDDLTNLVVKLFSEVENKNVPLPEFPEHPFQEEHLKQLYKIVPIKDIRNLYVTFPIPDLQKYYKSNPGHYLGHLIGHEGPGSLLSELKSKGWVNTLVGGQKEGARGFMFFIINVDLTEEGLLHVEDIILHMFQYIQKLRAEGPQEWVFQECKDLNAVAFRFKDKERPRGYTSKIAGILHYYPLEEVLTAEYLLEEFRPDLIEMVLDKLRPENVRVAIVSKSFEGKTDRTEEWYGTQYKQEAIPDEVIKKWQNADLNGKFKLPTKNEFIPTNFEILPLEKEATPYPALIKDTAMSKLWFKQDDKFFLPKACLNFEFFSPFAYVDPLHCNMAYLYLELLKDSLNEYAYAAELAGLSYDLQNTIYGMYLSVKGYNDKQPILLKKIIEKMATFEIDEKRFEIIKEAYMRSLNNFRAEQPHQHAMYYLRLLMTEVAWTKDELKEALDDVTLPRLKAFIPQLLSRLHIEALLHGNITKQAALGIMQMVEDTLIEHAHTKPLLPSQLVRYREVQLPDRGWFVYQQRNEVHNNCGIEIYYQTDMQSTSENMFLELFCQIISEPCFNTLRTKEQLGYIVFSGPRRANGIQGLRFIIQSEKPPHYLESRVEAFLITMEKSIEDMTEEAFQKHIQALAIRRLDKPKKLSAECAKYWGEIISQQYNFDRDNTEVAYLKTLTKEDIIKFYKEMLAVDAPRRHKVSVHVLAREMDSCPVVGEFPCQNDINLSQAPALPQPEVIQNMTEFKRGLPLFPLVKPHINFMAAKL
Experiment: Enzymatic competition assay with bradykinin
Format: biochemical
Conditions: bradykinin 2.1, 4.2 and 8.4 mM; varying D10 (0–50 µM)
Source text: Since D10 has been found as the strongest activator of IDE towards the proteolysis of insulin, we analyzed the binding site of the compound D10 for the further analysis. According to the computational results, D10 binds to Gln363 at the IDE exosite and His332 (Fig. 1D). We carried out site-directed mutagenesis by replacing these amino acids into Ala in order to verify that D10 indeed binds to this region via these amino acids. We first mutated Gln363 to Ala and then expressed and purified mutant protein through nickel resin. The effect of D10 on the proteolytic activity of mutant IDE (Gln363Ala) was measured towards FITC-insulin-mAb degradation. […] The activation was about 49-fold in the presence of D10 with wild type IDE (Fig. 2B). Although mutant IDE activity was less responsive to D10 compound compared to wild type IDE, it appeared as if D10 were interacting with IDE through […] and could enhance the activity of mutant IDE. Therefore, we generated a double mutant IDE (Gln363Ala, His332Ala) in order to eliminate the binding of D10 to the exosite region completely. […]
The effect of the bradykinin on the clearance of insulin was measured in the presence of compound D10. […] The fluorescence increase was monitored by using Fluoroskan Ascent FL microplate reader (Thermo).

Cc1nn(-c2ccccc2)c2nc(-c3cccc([N+](=O)[O-])c3)n3c4ccccc4nc3c2c1=O [Compound D10]
decrease of insulin degradation in presence of compound when bradykinin is added: about 50%

Reference: PMC3280214, “Structure Based Discovery of Small Molecules to Regulate the Activity of Human Insulin Degrading Enzyme” (PLoS ONE, 2012)
